Source: publication PMC7761982, “FDA-Approved Drugs with Potent In Vitro Antiviral Activity against Severe Acute Respiratory Syndrome Coronavirus 2” (Pharmaceuticals, 2020)
Counter-ions that a name gives are not always drawn. Like-named read-outs stand apart in the source and are kept apart here.

What was measured:
[1] = in vitro; settings: African green monkey, CC50 (Vero-E6)
[2] = tested on: NRC-03-nhCoV; test: microbe, parasite or virus in culture; format: cell-based, SARS-CoV-2
[3] = tested on: Vero-E6 cells
[4] = half maximal cytotoxic concentration, MTT assay, Vero-E6 cells
[5] = Severe acute respiratory syndrome coronavirus 2, Vero C1008, 72 h, Vero-E6 cells, 72 h, crystal violet, reduction of virus-induced CPE by 50%, read-out: IC50 (NRC-03-nhCoV)
[6] = Vero-E6 cells, 72 h, crystal violet, reduction of virus-induced CPE by 50%, read-out: IC50 (NRC-03-nhCoV)
[7] = read-out: CC50 (Vero-E6), half maximal cytotoxic concentration, MTT assay, Vero-E6 cells
[8] = Severe acute respiratory syndrome coronavirus 2, Vero C1008, Vero-E6 cells, 72 h, crystal violet, reduction of virus-induced CPE by 50%, read-out: IC50 (NRC-03-nhCoV)
[9] = Severe acute respiratory syndrome coronavirus 2, Vero C1008, negative log of the IC50 value against SARS-CoV-2, read-out: pIC50 (converted)

Row | Molecule | CC50 [1, 4] | IC50 [2, 5] | other results
1 | CC(=O)Oc1ccccc1C(=O)O [Acetyl Salicylic acid “Aspirin”, Acetyl Salicylic acid] | 1260 µM | 12.2 µM | 
2 | NCC[C@H](O)C(=O)N[C@@H]1C[C@H](N)[C@@H](O[C@H]2O[C@H](CN)[C@@H](O)[C@H](O)[C@H]2O)[C@H](O)[C@H]1O[C@H]1O[C@H](CO)[C@@H](O)[C@H](N)[C@H]1O [Amikacin sulphate] |  |  | IC50 [2, 6]: 16.8 µM; CC50 [3, 7]: 2460 µM
3 | CC1(C)S[C@@H]2[C@H](NC(=O)[C@H](N)c3ccc(O)cc3)C(=O)N2[C@H]1C(=O)O [Amoxicillin] | 615 µM | 16.1 µM | 
4 | CC1(C)S[C@@H]2[C@H](NC(=O)Cc3ccccc3)C(=O)N2[C@H]1C(=O)O [Benzathine penicillin] |  |  | IC50 [2, 6]: 15.8 µM; CC50 [3, 7]: 728 µM
5 | CCN1CCN(C(=O)N[C@@H](C(=O)N[C@@H]2C(=O)N3C(C(=O)O)=C(CSc4nnnn4C)CS[C@H]23)c2ccc(O)cc2)C(=O)C1=O [Cefoperazone] | 69 µM | 12.4 µM | 
6 | CO/N=C(\C(=O)N[C@@H]1C(=O)N2C(C(=O)O)=C(COC(C)=O)CS[C@H]12)c1csc(N)n1 [Cefotaxime] | 3160 µM | 42.7 µM | 
7 | CC(C)(O/N=C(\C(=O)N[C@@H]1C(=O)N2C(C(=O)[O-])=C(C[n+]3ccccc3)CS[C@H]12)c1csc(N)n1)C(=O)O [Ceftazidime] | 5550 µM | 46.1 µM | 
8 | CO/N=C(\C(=O)N[C@@H]1C(=O)N2C(C(=O)O)=C(CSc3nc(=O)c(=O)[nH]n3C)CS[C@H]12)c1csc(N)n1 [Ceftriaxone] | 446 µM |  | IC50 [2, 8]: 16.1 µM
9 | Cc1ccc(-c2cc(C(F)(F)F)nn2-c2ccc(S(N)(=O)=O)cc2)cc1 [Celecoxib] | 140 µM | 13 µM | IC50 [2, 9]: 12.9 µM
10 | CC1=C(C(=O)O)N2C(=O)[C@@H](NC(=O)[C@H](N)c3ccccc3)[C@H]2SC1 [Cephalexin] |  | 13.2 µM | 
11 | O=C(N[C@H](CO)[C@H](O)c1ccc([N+](=O)[O-])cc1)C(Cl)Cl [Chloramphenicol] | 33.9 µM | 16.9 µM | CC50 [3, 7]: 33.9 µM
12 | CN(C)CCC(c1ccc(Cl)cc1)c1ccccn1 (stereo not drawn) [Chlorpheniramine maleate] | 466 µM | 3.6 µM | 
13 | CC(C)C(=O)OCC(=O)[C@@]12O[C@H](C3CCCCC3)O[C@@H]1C[C@H]1[C@@H]3CCC4=CC(=O)C=C[C@]4(C)[C@H]3[C@@H](O)C[C@@]12C [Ciclesonide] | 120 µM | 4.2 µM | 
14 | O=C(O)c1cn(C2CC2)c2cc(N3CCNCC3)c(F)cc2c1=O [Ciprofloxacin] |  | 61.6 µM | 
15 | CCC[C@@H]1C[C@@H](C(=O)N[C@@H]([C@H]2O[C@H](SC)[C@H](O)[C@@H](O)[C@H]2O)[C@H](C)Cl)N(C)C1 [Clindamycin] |  | 15.7 µM | IC50 [2, 6]: 15.7 µM
16 | C[C@@H]1C[C@H]2[C@@H]3CCC4=CC(=O)C=C[C@]4(C)[C@@]3(F)[C@@H](O)C[C@]2(C)[C@@]1(O)C(=O)CO [Dexamethasone] | 1900 µM | 123 µM | 
17 | O=C(O)Cc1ccccc1Nc1c(Cl)cccc1Cl [Diclofenac sodium] | 138 µM | 96.2 µM | 
18 | C[C@H]1c2cccc(O)c2C(=O)C2=C(O)[C@]3(O)C(=O)C(C(N)=O)=C(O)[C@@H](N(C)C)[C@@H]3[C@@H](O)[C@@H]21 [Doxycycline] | 636 µM | 5.1 µM | IC50 [2, 9]: 5.13 µM
19 | Cc1onc(-c2c(F)cccc2Cl)c1C(=O)N[C@@H]1C(=O)N2[C@@H]1SC(C)(C)[C@@H]2C(=O)O [Flucloxacillin] | 966 µM | 158 µM | 
20 | CCC(=O)O[C@]1(C(=O)SCF)[C@H](C)C[C@H]2[C@@H]3C[C@H](F)C4=CC(=O)C=C[C@]4(C)[C@@]3(F)[C@@H](O)C[C@@]21C [Fluticasone Propionate] | 32 µM | 1.71 µM | 

Row | Molecule | CC50 [1, 4] | IC50 [2, 5] | other results
21 | COc1ccc(C[C@@H](C)NC[C@H](O)c2ccc(O)c(NC=O)c2)cc1 [Formoterol Fumarate] |  |  | IC50 [2, 6]: 71.8 µM; CC50 [3]: 569 µM
22 | C[C@]12CCC(=O)C=C1CC[C@@H]1[C@@H]2[C@@H](O)C[C@@]2(C)[C@H]1CC[C@]2(O)C(=O)CO [Hydrocortisone] | 614 µM | 7.1 µM | 
23 | CC(C)Cc1ccc(C(C)C(=O)O)cc1 (stereo not drawn) [Ibuprofen] | 1170 µM | 88.7 µM | 
24 | COc1ccc2c(c1)c(CC(=O)O)c(C)n2C(=O)c1ccc(Cl)cc1 [Indomethacin] | 672 µM | 8.51 µM | 
25 | O=C(c1ccccc1)c1ccc2n1CCC2C(=O)O (stereo not drawn) [Ketorolac Tromethamine] | 2040 µM | 153 µM | 
26 | C[C@H]1COc2c(N3CCN(C)CC3)c(F)cc3c(=O)c(C(=O)O)cn1c23 [Levofloxacin] | 2160 µM | 13.8 µM | 
27 | CC(=O)NC[C@H]1CN(c2ccc(N3CCOCC3)c(F)c2)C(=O)O1 [Linezolid] | 816 µM | 16.3 µM | 
28 | Cc1cnc(NC(=O)C2=C(O)c3ccccc3S(=O)(=O)N2C)s1 [Meloxicam] | 262 µM | 12.4 µM | 
29 | Cc1c(N(C)CS(=O)(=O)O)c(=O)n(-c2ccccc2)n1C [Metamizole sodium] |  |  | IC50 [2, 6]: 15 µM; CC50 [3, 7]: 948 µM
30 | C[C@H]1C[C@@H]2[C@H]([C@@H](O)C[C@@]3(C)[C@H]2CC[C@]3(O)C(=O)CO)[C@@]2(C)C=CC(=O)C=C12 [Methylprednisolone] | 3340 µM | 90.4 µM | 
31 | CC(C)(O)c1ccccc1CC[C@@H](SCC1(CC(=O)O)CC1)c1cccc(/C=C/c2ccc3ccc(Cl)cc3n2)c1 [Montelukast] |  |  | CC50 [1]: 9.86 µM
32 | COc1c(N2C[C@@H]3CCCN[C@@H]3C2)c(F)cc2c(=O)c(C(=O)O)cn(C3CC3)c12 [Moxifloxacin] | 2240 µM | 12.2 µM | 
33 | c1ccc2c(CC3=NCCN3)cccc2c1 [Naphazoline] | 636 µM | 9.52 µM | 
34 | O=C1CN(/N=C/c2ccc([N+](=O)[O-])o2)C(=O)N1 [Nitrofurantoin] |  |  | CC50 [1]: 599 µM; IC50 ([2]; Severe acute respiratory syndrome coronavirus 2, Vero C1008, 72 h, read-out: IC50 (NRC-03-nhCoV)): 16.2 µM
35 | C[C@@H]1[C@H](O)[C@@H](C)/C=C/C=C/CC/C=C/C=C/C=C/C=C/C(O[C@H]2O[C@H](C)[C@@H](O)[C@H](N)[C@@H]2O)CC2O[C@](O)(CC(O)C(O)CCC(O)CC(O)CC(O)CC(=O)O[C@H]1C)CC(O)C2C(=O)O (stereo partly drawn) [Nystatin] |  |  | IC50 [2, 6]: 161 µM; CC50 [3, 7]: 183 µM
36 | CC(=O)Nc1ccc(O)cc1 [Paracetamol] | 4980 µM |  | 
37 | CN1C(C(=O)Nc2ccccn2)=C(O)c2ccccc2S1(=O)=O [Piroxicam] | 1800 µM | 8.21 µM | IC50 [2, 9]: 8.13 µM
38 | OCc1cc(C(O)CNCCCCCCOCCCCc2ccccc2)ccc1O (stereo not drawn) [Salmeterol] | 4.1 µM |  | IC50 [2, 8]: 1.5 µM
39 | Neomycin |  |  | IC50 [2, 6]: 18.1 µM; CC50 [3, 7]: 833 µM
